In patent US20200009121A1, “Purpose for Soothing Brain Disorders of Patients from Drug Detoxification Using Biperiden HCL” (priority 2018, published 2020):
Counter-ions that a name gives are not always drawn.

Tested on: brain disorders of patients from drug detoxification
Assay: Biperiden Hcl given to patients after block-out of poisoning pathway (drug detoxification) treatment
Type: in vivo
Details: dose 10 mg/ml
Protocol: A Biperiden Hcl 10 medicine of the disclosure is a cure of Parkinson's disease and can reduce effect of acetylcholine of Extrapyramidal Symptoms (EPS) on it to further decrease excitement of central nervous. […] With reference to FIG. 1, a Biperiden Hcl 10 medicine is applied after patients are treated with block-out of poisoning pathway, wherein poisoning pathway treatment 20 can adapt intravenous drip prescription 30 disclosed in U.S. utility patent application Ser. No.10/004,781 owned by the inventor(s) and purpose treatment thereof, providing the intravenous drip prescription 30 to patients. The intravenous drip prescription 30 comprises a plurality of ingredients consisting of Cerebrolysin, Piracetam, Cimetidine, Scopolamine Butylbromide, Nefopam, B. C Complex, Vitamin B1, Ascorbic acid, Ketorolac, Guronsan, Hyoscien Butylbromide, and Sukerin. After a patient is dealt with poisoning pathway treatment 20, a dose (10 mg/ml) of Biperiden Hcl 10 is provided to the patient to sooth brain disorder of the patient from the poisoning pathway treatment 20 of the patient, capable of rapidly recovering consciousness and normal physiological state.

OC(CCN1CCCCC1)(c1ccccc1)C1CC2C=CC1C2 (stereo not shown) [Biperiden Hcl] was tested, and the “soothing brain disorders of patients and recovering consciousness and normal physiological state” value was “excellent effect of soothing brain disorders of patients and recovering consciousness and normal physiological state”.
